Experimental data published in the NIST ThermoML archive (doi:10.1016/j.jct.2014.12.017).
Numbers after ± are expanded uncertainties.

Experiment: wn = mass fraction of the nth substance listed
Details: 297.15 K; 101 kPa; Liquid; Alternating current cell with electrodes; w1 = 0.1

Row | Compound | electrical conductivity [S/m]
1 | C[n+]1ccn(CCO)c1.[Cl-] [1-(2-hydroxyethyl)-3-methyl-1H-imidazolium chloride] + O | 4.19 ± 0.04
2 | CCCCn1cc[n+](C)c1.N#CN=C=[N-] [1-butyl-3-methylimidazolium dicyanamide] + O | 1.9 ± 0.019
3 | Cn1cc[n+](CCO)c1.[Br-] [3-(2-hydroxyethyl)-1-methyl-1H-imidazolium bromide] + O | 3.58 ± 0.04
4 | CCCCn1cc[n+](C)c1.O=S(=O)([O-])O [1-butyl-3-methylimidazolium hydrogen sulfate] + O | 7.63 ± 0.08
5 | CCCCn1cc[n+](C)c1.O=S(=O)([O-])C(F)(F)F [1-butyl-3-methylimidazolium trifluoromethanesulfonate] + O | 1.38 ± 0.014
6 | CCCCn1cc[n+](C)c1.[Br-] [1-butyl-3-methylimidazolium bromide] + O | 2.87 ± 0.03
7 | CCCCn1cc[n+](C)c1.[O-][Cl+3]([O-])([O-])[O-] [1-butyl-3-methylimidazolium perchlorate] + O | 2.18 ± 0.02
8 | CCCCn1cc[n+](C)c1.COS(=O)(=O)[O-] [1-butyl-3-methylimidazolium methyl sulfate] + O | 1.727 ± 0.017
9 | CCCCn1cc[n+](C)c1.[Cl-] [1-butyl-3-methylimidazolium chloride] + O | 3.43 ± 0.03
